Data: patent EP0009777A1, “Retinoic- and 7,8-dehydro-retinoic-acid-N-(carboxy)phenyl amides, process for their preparation and pharmaceutical compositions containing them” (BASF Aktiengesellschaft, priority 1978, dated 1980)

Legend:
[1] = tested on: Hamster-Tracheen-Gewebe; assay: Reversal of keratinisation induced by vitamin A deficiency in hamster tracheal tissue (organ culture; methods of Clamon et al. 1974, Sporn et al. 1975); format: cell-based; conditions: keratinisation induced by vitamin A hypovitaminosis; for minimal effective concentration: Mesocricetus auratus, read-out: Konzentration, in der die Keratinisierung von Hamster-Tracheen-Gewebe rückgängig gemacht / geheilt wird (wirksam)
Excerpt: (§1) Nachteilig an diesen bekannten Retinsäureamiden ist ihre geringe therapeutische Breite. Die Substanzen zeigen entweder eine vergleichsweise geringe Aktivität oder wie wirken schon in vergleichsweise geringen Dosen toxisch. So kann beispielsweise Retinsäure-N-etylamid schon in 2 x 10-^9 molaren Konzentrationen die durch Vitamin A-Hypovitaminose induzierte Keratinisierung von Hamster-Tracheen--Gewebe wieder rückgängig machen. Die Methodik hierzu kann G.H. Clamon et al Nature 250; 64-66 (1974) oder M.B. Sporn et al Nature 253, 47-50 (1975)) entnommen werden. Die Keratinisierung wird als praekanzerotischer Prozeß angesehen. Das Retinsäure-N-ethylamid wirkt bereits in einer Konzentration von 9 x 10-^7 molar toxisch auf Tracheenknorpelgewebe vom Hamster in Kultur, wie von M.B. Sporn et al in Nature 263, 110-113 (1976) beschrieben ist.
Bei der Prophylaxe von Praekanzerosen an keratinisiertem Hamster-Tracheen-Gewebe ist die freie Säure jedoch noch in 10^-10 molarer Konzentration wirksam und damit wesentlich aktiver als der Ethylester.

[2] = tested on: Tracheenknorpelgewebe vom Hamster; assay: Toxicity on hamster tracheal cartilage tissue in culture (Sporn et al. 1976); format: cell-based; conditions: result in words; test not named, presumably the tracheal cartilage culture
Excerpt: as §1

In the case of CC1=C(/C=C/C(C)=C/C=C/C(C)=C/C(=O)Nc2cccc(C(=O)O)c2)C(C)(C)CCC1 [all-E-Retinsäure-N-(m-carboxy)-phenylamid], the “Konzentration, in der die Keratinisierung von Hamster-Tracheen-Gewebe rückgängig gemacht / geheilt wird (wirksam)” value [1] is reported as “Entsprechende Resultate”.
CC1=C(/C=C/C(C)=C/C=C/C(C)=C/C(=O)Nc2ccc(C(=O)O)cc2)C(C)(C)CCC1 [all-E-Retinsäure-N-(p-carboxy)-phenylamid] was tested, and the minimal effective concentration [1] was 0.0001 µM and the “celluläre Toxizität” value [2] was “ebenso geringe Toxizität wie der entsprechende Ethylester”.
CC1=C(C#C/C(C)=C/C=C/C(C)=C/C(=O)Nc2ccccc2C(=O)O)C(C)(C)CCC1 [all-E-7,8-Dehydro-retinsäure-N-(o-carboxy)-phenylamid] was tested, and the “Konzentration, in der die Keratinisierung von Hamster-Tracheen-Gewebe rückgängig gemacht / geheilt wird (wirksam)” value [1] was “Entsprechende Resultate”.
CC1=C(/C=C/C(C)=C/C=C/C(C)=C\C(=O)Nc2ccc(C(=O)O)cc2)C(C)(C)CCC1 [13-Z-Retinsäure-N-(p-carboxy)-phenylamid] was tested, and the “Konzentration, in der die Keratinisierung von Hamster-Tracheen-Gewebe rückgängig gemacht / geheilt wird (wirksam)” value [1] was “Entsprechende Resultate”.
In the case of CC1=C(C#C/C(C)=C/C=C/C(C)=C/C(=O)Nc2ccc(C(=O)O)cc2)C(C)(C)CCC1 [all-E-7,8-Dehydro-retinsäure-N-(p-carboxy)-phenylamid], the “Konzentration, in der die Keratinisierung von Hamster-Tracheen-Gewebe rückgängig gemacht / geheilt wird (wirksam)” value [1] is reported as “Entsprechende Resultate”.
In the case of CCOC(=O)c1ccc(NC(=O)/C=C(C)/C=C/C=C(C)/C=C/C2=C(C)CCCC2(C)C)cc1 [Retinsäure-N-(p-ethoxycarbonyl)-phenylamid, reference compound], the minimal effective concentration [1] is reported as 0.01 µM and the “celluläre Toxizität” value [2] is reported as “geringe celluläre Toxizität”.
In the case of CC1=C(/C=C/C(C)=C/C=C/C(C)=C\C(=O)Nc2cccc(C(=O)O)c2)C(C)(C)CCC1 [13-Z-Retinsäure-N-(m-carboxy)-phenylamid], the “Konzentration, in der die Keratinisierung von Hamster-Tracheen-Gewebe rückgängig gemacht / geheilt wird (wirksam)” value [1] is reported as “Entsprechende Resultate”.
For CC1=C(/C=C/C(C)=C/C=C/C(C)=C\C(=O)Nc2ccccc2C(=O)O)C(C)(C)CCC1 [13-Z-Retinsäure-N-(o-carboxy)-phenylamid], the “Konzentration, in der die Keratinisierung von Hamster-Tracheen-Gewebe rückgängig gemacht / geheilt wird (wirksam)” value [1] was “Entsprechende Resultate”.
Work on CCNC(=O)/C=C(C)/C=C/C=C(C)/C=C/C1=C(C)CCCC1(C)C [Retinsäure-N-ethylamid, reference compound] yielded a minimal effective concentration [1] of 0.002 µM.
In the case of CC1=C(/C=C/C(C)=C/C=C/C(C)=C/C(=O)Nc2ccccc2C(=O)O)C(C)(C)CCC1 [all-E-Retinsäure-N-(o-carboxy)-phenylamid], the “Konzentration, in der die Keratinisierung von Hamster-Tracheen-Gewebe rückgängig gemacht / geheilt wird (wirksam)” value [1] is reported as “Entsprechende Resultate”.
With CC1=C(C#C/C(C)=C/C=C/C(C)=C/C(=O)Nc2cccc(C(=O)O)c2)C(C)(C)CCC1 [all-E-7,8-Dehydro-retinsäure-N-(m-carboxy)-phenylamid] the “Konzentration, in der die Keratinisierung von Hamster-Tracheen-Gewebe rückgängig gemacht / geheilt wird (wirksam)” value [1] was “Entsprechende Resultate”.
